Measured values: patent US20210161994A1, “IMPLANTABLE DEVICE FOR THE DELIVERY OF OCTREOTIDE AND METHODS OF USE THEREOF” (Endo Pharmaceuticals Solutions Inc., priority 2008, published 2021)

Columns and labels:
[1] = Release rate of octreotide from polyurethane implantable devices; format: physicochemical; settings: Tecophilic HP-60D-05, 5.5% EWC
Source text: (§1) Tables 2A-D show release rates of octreotide from three different classes of polyurethane compounds (Tecophilic®, Tecoflex® and Carbothane®). The release rates have been normalized to surface area of the implant, thereby adjusting for slight differences in the size of the various implantable devices. Octreotide is water-soluble as indicated by the Log P value; for the purposes of the data provided, a Log P value of greater than about 2.0 is considered to be not readily soluble in aqueous solution. The polyurethanes were selected to have varying affinities for water soluble active agents and varying flexibility (as indicated by the variation in flex modulus).
Polyurethanes are available or can be prepared, for example, with a range of EWCs or flex moduli (Table 2). Tables 2A-B show normalized release rates for various active ingredients from polyurethane compounds. Tables […] show the non-normalized release rates for the same active ingredients, together with implant composition.

[2] = Log P (partition coefficient); format: physicochemical
Source text: as §1
The solubility of an active agent in an aqueous environment can be measured and predicted based on its partition coefficient (defined as the ratio of concentration of compound in aqueous phase to the concentration in an immiscible solvent). The partition coefficient (P) is a measure of how well a substance partitions between a lipid (oil) and water. The measure of solubility based on P is often given as Log P. In general, solubility is determined by Log P and melting point (which is affected by the size and structure of the compounds). Typically, the lower the Log P value, the more soluble the compound is in water. […]

SMILES: C[C@@H](O)[C@@H]1NC(=O)[C@H](CCCCN)NC(=O)[C@@H](Cc2c[nH]c3ccccc23)NC(=O)[C@H](Cc2ccccc2)NC(=O)[C@@H](NC(=O)[C@H](N)Cc2ccccc2)CSSC[C@@H](C(=O)N[C@H](CO)[C@@H](C)O)NC1=O [Octreotide Acetate]
- non-normalized release rate [1]: 0
- release rate normalized to surface area of the implant ([1]; 10% HPC, 2% SA, 50 mg API): 0
- logP [2]: 0.43
